# Experimental data: PubChem BioAssay (NCI)
#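 Protocol summary: plate cells (96-well), add compound at 5 concentrations, incubate 48 h, interpolate endpoints linearly. GI50 is the concentration that inhibits growth by half. The concentration for full growth arrest is given as TGI.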
# What was measured:
# Test in all cases: NCI tumour cell line growth inhibition, 48 h
# [1] = system: 786-0 renal
# [2] = system: A498 renal
# [3] = system: A549 NSCLC
# [4] = system: ACHN renal
# [5] = system: BT-549 breast
# [6] = system: CAKI-1 renal
# [7] = system: CCRF-CEM leukemia
# [8] = system: COLO 205 colon
# [9] = system: DU-145 prostate
# [10] = system: EKVX NSCLC
# [11] = system: HCC-2998 colon
# [12] = system: HCT-116 colon
# [13] = system: HCT-15 colon
# [14] = system: HL-60(TB) leukemia
# [15] = system: HOP-62 NSCLC
# [16] = system: HOP-92 NSCLC
# [17] = system: HS 578T breast
# [18] = system: HT29 colon
# [19] = system: IGROV1 ovarian
# [20] = system: K-562 leukemia
# [21] = system: KM12 colon
# [22] = system: LOX IMVI melanoma
# [23] = system: M14 melanoma
# [24] = system: MALME-3M melanoma
# [25] = system: MCF7 breast
# [26] = system: MDA-MB-231 breast
# [27] = system: MDA-MB-435
# [28] = system: MDA-MB-468 breast
# [29] = system: MOLT-4 leukemia
# [30] = system: NCI-H226 lung
# [31] = system: NCI-H23 lung
# [32] = system: NCI-H460 lung
# [33] = system: NCI-H522 lung
# [34] = system: NCI/ADR-RES ovarian
# [35] = system: OVCAR-3 ovarian
# [36] = system: OVCAR-4 ovarian
# [37] = system: OVCAR-5 ovarian
# [38] = system: OVCAR-8 ovarian
# [39] = system: PC-3 prostate
# [40] = system: RPMI-8226 leukemia
# [41] = system: RXF 393 renal
# [42] = system: SF-268 CNS
# [43] = system: SF-295 CNS
# [44] = system: SF-539 CNS
# [45] = system: SK-MEL-2 melanoma
# [46] = system: SK-MEL-28 melanoma
# [47] = system: SK-MEL-5 melanoma
# [48] = system: SK-OV-3 ovarian
# [49] = system: SN12C renal
# [50] = system: SNB-19 CNS
# [51] = system: SNB-75 CNS
# [52] = system: SR leukemia
# [53] = system: SW-620 colon
# [54] = system: T-47D breast
# [55] = system: TK-10 renal
# [56] = system: U251 CNS
# [57] = system: UACC-257 melanoma
# [58] = system: UACC-62 melanoma
# [59] = system: UO-31 renal
structure (smiles),measurement,setting,value
COc1ccc(-c2nc(S(=O)(=O)c3ccccc3)c(S(C)(=O)=O)o2)cc1,GI50,[1],2.08 µM
same,TGI,[1],4.98 µM
same,GI50,[2],15.5 µM
same,TGI,[2],29 µM
same,GI50,[3],19.1 µM
same,TGI,[3],42.1 µM
same,GI50,[4],1.7 µM
same,TGI,[4],3.13 µM
same,GI50,[5],10.1 µM
same,TGI,[5],22.6 µM
same,GI50,[6],2.59 µM
same,TGI,[6],10.9 µM
same,GI50,[7],2.07 µM
same,TGI,[7],6.22 µM
same,GI50,[8],2.22 µM
same,TGI,[8],4.9 µM
same,GI50,[9],6.26 µM
same,TGI,[9],20.4 µM
same,GI50,[10],12.2 µM
same,TGI,[10],26.6 µM
same,GI50,[11],15 µM
same,TGI,[11],29 µM
same,GI50,[12],1.99 µM
same,TGI,[12],4.58 µM
same,GI50,[13],2.04 µM
same,TGI,[13],4.62 µM
same,GI50,[14],2.38 µM
same,TGI,[14],20.9 µM
same,GI50,[15],18.2 µM
same,TGI,[15],35.2 µM
same,GI50,[16],7.29 µM
same,TGI,[16],20.8 µM
same,GI50,[17],12.8 µM
same,TGI,[17],48.4 µM
same,GI50,[18],3.15 µM
same,TGI,[18],9.31 µM
same,GI50,[19],13.1 µM
same,TGI,[19],27.2 µM
same,GI50,[20],2.77 µM
same,TGI,[20],> 100 µM
same,GI50,[21],17.6 µM
same,TGI,[21],35.7 µM
same,GI50,[22],1.54 µM
same,TGI,[22],2.92 µM
same,GI50,[23],3.26 µM
same,TGI,[23],14.3 µM
same,GI50,[24],1.67 µM
same,TGI,[24],3.1 µM
same,GI50,[25],2.46 µM
same,TGI,[25],8.25 µM
same,GI50,[26],3.52 µM
same,TGI,[26],12.2 µM
same,GI50,[27],8.96 µM
same,TGI,[27],21.8 µM
same,GI50,[28],2.24 µM
same,TGI,[28],4.41 µM
same,GI50,[29],3.39 µM
same,TGI,[29],13.2 µM
same,GI50,[30],18.2 µM
same,TGI,[30],40.9 µM
same,GI50,[31],12 µM
same,TGI,[31],27.2 µM
same,GI50,[32],13.9 µM
same,TGI,[32],29.7 µM
same,GI50,[33],1.65 µM
same,TGI,[33],3.32 µM
same,GI50,[34],17 µM
same,TGI,[34],48 µM
same,GI50,[35],1.74 µM
same,TGI,[35],3.33 µM
same,GI50,[36],3.44 µM
same,TGI,[36],15.4 µM
same,GI50,[37],14.4 µM
same,TGI,[37],27.9 µM
same,GI50,[38],13.6 µM
same,TGI,[38],32.1 µM
same,GI50,[39],14.1 µM
same,TGI,[39],30 µM
same,GI50,[40],3.97 µM
same,TGI,[40],> 100 µM
same,GI50,[41],2.07 µM
same,TGI,[41],4.09 µM
same,GI50,[42],14.4 µM
same,TGI,[42],33.9 µM
same,GI50,[43],15.7 µM
same,TGI,[43],29.6 µM
same,GI50,[44],3.93 µM
same,TGI,[44],14.6 µM
same,GI50,[45],14.2 µM
same,TGI,[45],28 µM
same,GI50,[46],12.5 µM
same,TGI,[46],25.2 µM
same,GI50,[47],15.2 µM
same,TGI,[47],29.1 µM
same,GI50,[48],21.7 µM
same,TGI,[48],44.9 µM
same,GI50,[49],11.4 µM
same,TGI,[49],23.5 µM
same,GI50,[50],16.5 µM
same,TGI,[50],31.8 µM
same,GI50,[51],11.3 µM
same,TGI,[51],23.7 µM
same,GI50,[52],2.66 µM
same,TGI,[52],25.6 µM
same,GI50,[53],1.67 µM
same,TGI,[53],3.39 µM
same,GI50,[54],2.16 µM
same,TGI,[54],5.03 µM
same,GI50,[55],7.5 µM
same,TGI,[55],21 µM
same,GI50,[56],17.7 µM
same,TGI,[56],34.3 µM
same,GI50,[57],13 µM
same,TGI,[57],28 µM
same,GI50,[58],11.2 µM
same,TGI,[58],23.2 µM
same,GI50,[59],5.43 µM
same,TGI,[59],18.3 µM
